The text below walks through data of patent publication US10072001B2, “Tank-binding kinase inhibitor compounds” (Gilead Sciences, Inc., priority 2014, dated 2018).

One experiment deals with TBK1 (Homo sapiens (Human), UniProt Q9UHD2). Briefly: TR-FRET kinase assay, TBK1. The settings on record: read-out: TBK1-IC50; full length recombinant TBK1 2.5 nM, 2x Km ATP, 1 μM peptide, 240 min at 25° C.; geometric mean of minimum four determinations.
TBK1, sequence (Q9UHD2 whole entry): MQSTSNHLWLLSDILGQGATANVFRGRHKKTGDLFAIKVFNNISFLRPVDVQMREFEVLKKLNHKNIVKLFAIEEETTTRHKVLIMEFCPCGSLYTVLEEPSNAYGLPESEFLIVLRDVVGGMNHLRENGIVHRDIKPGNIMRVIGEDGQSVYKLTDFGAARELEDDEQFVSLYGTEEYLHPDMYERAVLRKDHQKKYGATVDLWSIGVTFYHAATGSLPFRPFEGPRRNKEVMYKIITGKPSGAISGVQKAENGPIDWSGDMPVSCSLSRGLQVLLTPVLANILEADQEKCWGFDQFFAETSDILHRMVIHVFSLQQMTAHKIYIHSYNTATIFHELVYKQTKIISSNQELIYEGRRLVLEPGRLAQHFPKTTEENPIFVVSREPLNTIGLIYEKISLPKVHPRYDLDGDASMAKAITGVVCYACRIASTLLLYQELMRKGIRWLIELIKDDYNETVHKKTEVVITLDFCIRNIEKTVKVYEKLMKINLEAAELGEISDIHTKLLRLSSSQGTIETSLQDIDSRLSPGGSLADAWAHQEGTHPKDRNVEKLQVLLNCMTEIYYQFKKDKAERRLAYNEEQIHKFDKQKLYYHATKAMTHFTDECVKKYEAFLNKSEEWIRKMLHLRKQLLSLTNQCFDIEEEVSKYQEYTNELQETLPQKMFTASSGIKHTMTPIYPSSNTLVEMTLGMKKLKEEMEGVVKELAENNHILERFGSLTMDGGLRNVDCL
In the next experiment the target is IKKε (Homo sapiens (Human), UniProt Q14164). In words: TR-FRET kinase assay, IKKε. It counts as biochemical. As to conditions: full length recombinant IKKε 0.3 nM, 2x Km ATP, 1 μM peptide, 240 min at 25° C.; geometric mean of minimum four determinations. The text has this: Biological Assay for TBK1 and IKKs:

IKKε, sequence (Q14164 whole entry): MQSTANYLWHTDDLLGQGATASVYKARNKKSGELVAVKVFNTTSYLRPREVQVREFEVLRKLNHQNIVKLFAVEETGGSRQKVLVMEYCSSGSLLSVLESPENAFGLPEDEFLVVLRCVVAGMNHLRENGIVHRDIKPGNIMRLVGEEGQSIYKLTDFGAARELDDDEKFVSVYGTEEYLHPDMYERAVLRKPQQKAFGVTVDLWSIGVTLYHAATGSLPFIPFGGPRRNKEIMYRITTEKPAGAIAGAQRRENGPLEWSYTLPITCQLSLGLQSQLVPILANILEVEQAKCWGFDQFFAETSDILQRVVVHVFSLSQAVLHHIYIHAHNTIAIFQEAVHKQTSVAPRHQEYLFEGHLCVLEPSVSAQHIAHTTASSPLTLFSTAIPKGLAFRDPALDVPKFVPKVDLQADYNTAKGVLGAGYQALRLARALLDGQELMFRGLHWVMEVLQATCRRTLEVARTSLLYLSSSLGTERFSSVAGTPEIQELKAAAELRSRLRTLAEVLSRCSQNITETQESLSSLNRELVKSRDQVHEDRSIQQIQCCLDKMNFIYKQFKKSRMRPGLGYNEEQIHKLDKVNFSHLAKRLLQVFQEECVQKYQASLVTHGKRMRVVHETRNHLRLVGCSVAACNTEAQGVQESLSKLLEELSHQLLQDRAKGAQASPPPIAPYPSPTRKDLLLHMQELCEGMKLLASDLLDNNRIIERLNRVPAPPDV

For the molecule `N#Cc1cc(-c2ccnc3[nH]c(-c4ccc5c(c4)C(=O)NC5)cc23)ccc1OC1CCOCC1` [Example 74, 5-(2-(3-oxoisoindolin-5-yl)-1H-pyrrolo[2,3-b]pyridin-4-yl)-2-((tetrahydro-2H-pyran-4-yl)oxy)benzonitrile], the figures for the IC50 on TBK1 and at IKKε were 0.00962 µM and greater than 1 µM, respectively.
In the same order, the values of `N#Cc1cc(-c2ncnc3[nH]c(-c4ccc(C5CCN(CC(F)F)CC5)cc4)nc23)ccc1OC1CCNCC1` [Example 260, 5-(8-(4-(1-(2,2-difluoroethyl)piperidin-4-yl)phenyl)-9H-purin-6-yl)-2-(piperidin-4-yloxy)benzonitrile] are 0.026 µM and 0.0844 µM.
With `Cc1cc(N2CCOCC2)ccc1-c1cc2c(-c3ccc(OC4CCNCC4)c(C#N)c3)ncnc2[nH]1` [Example 120, 5-(6-(2-methyl-4-morpholinophenyl)-7H-pyrrolo[2,3-d]pyrimidin-4-yl)-2-(piperidin-4-yloxy)benzonitrile], the IC50 amounted to 0.0222 µM at TBK1 and 0.102 µM at IKKε.
